Assay results published in BigSolDB 2.1.

O=C(O)CCCC[C@@H]1SC[C@@H]2NC(=O)N[C@@H]21
Details | solubility (mole fraction)
in DMF, 298.65 K | 0.00356
in DMF, 303.25 K | 0.00413
in DMF, 308.15 K | 0.00497
in DMF, 313.15 K | 0.00603
in DMF, 318.15 K | 0.0075
in DMF, 323.25 K | 0.00902
in DMF, 328.15 K | 0.0107
in DMF, 333.15 K | 0.0128
in DMSO, 298.15 K | 0.0378
in DMSO, 303.15 K | 0.0425
in DMSO, 308.15 K | 0.0479
in DMSO, 313.15 K | 0.053
in DMSO, 318.05 K | 0.0582
in DMSO, 322.75 K | 0.0633
in DMSO, 327.65 K | 0.0687
in DMSO, 332.85 K | 0.0748
in acetic acid, 298.15 K | 0.00226
in acetic acid, 303.15 K | 0.00283
in acetic acid, 308.15 K | 0.0035
in acetic acid, 313.25 K | 0.00424
in acetic acid, 317.95 K | 0.00509
in acetic acid, 323.45 K | 0.00646
in acetic acid, 327.85 K | 0.00766
in acetic acid, 333.25 K | 0.00922
in ethanol, 298.15 K | 6.35e-05
in ethanol, 302.95 K | 8.69e-05
in ethanol, 308.85 K | 0.000133
in ethanol, 313.95 K | 0.000176
in ethanol, 318.45 K | 0.00023
in ethanol, 323.55 K | 0.000309
in ethanol, 329.35 K | 0.000442
in ethanol, 333.85 K | 0.000582
in methanol, 298.15 K | 6.92e-05
in methanol, 302.75 K | 9.37e-05
in methanol, 308.05 K | 0.000143
in methanol, 313.25 K | 0.000208
in methanol, 317.85 K | 0.000298
in methanol, 323.55 K | 0.00046
in methanol, 327.65 K | 0.000601
in methanol, 332.95 K | 0.000862
in water, 298.15 K | 4.97e-06
in water, 303.15 K | 8.18e-06
in water, 308.05 K | 1.28e-05
in water, 312.75 K | 2.06e-05
in water, 318.55 K | 3.52e-05
in water, 323.15 K | 5.42e-05
in water, 328.95 K | 9.12e-05
in water, 332.95 K | 0.000129
